# Test results published in article PMC6155852, “Oral Administration of the Japanese Traditional Medicine Keishibukuryogan-ka-yokuinin Decreases Reactive Oxygen Metabolites in Rat Plasma: Identification of Chemical Constituents Contributing to Antioxidant Activity” (Molecules : A Journal of Synthetic Chemistry and Natural …, 2017).
# Where “and” joins values, the source holds several entries; their conditions need not be identical. Equal values may be shown once. Read-outs that look alike come from different tables or passages of the source.
# Columns and labels:
# [1] = Lipid hydroperoxide (LPO) generation assay (linoleic acid, Fenton reaction); type: biochemical
# Experimental: Antioxidant assays using linoleic acid with a purity of 98.0% (Wako Pure Chemical Ind.) were performed using a described protocol with modifications. Briefly, 20 μL of 1% linoleic acid in methanol, 20 μL of 20 mmol/L ferrous chloride in water, 20 μL of test sample in DMSO, and 150 μL of a mixed solution (1:1) of methanol and 20 mmol/L phosphate buffer (pH 7.0) were added to 96-well polypropylene plates. After incubation at room temperature in the dark for 1 h, 10 μL of the reaction products were transferred to 200 μL of a methanol solution containing 39 mmol/L ammonium thiocyanate, 0.2 mmol/L ferrous chloride, and 0.01 mol/L hydrochloride. After incubation for 15 min, absorbance at 500 nm was measured using a microplate reader (Multiskan GO, Thermo Fisher Scientific Inc., Waltham, MA, USA). The concentration of lipid hydroperoxide (LPO) products was calculated conveniently using standard curves of serially-diluted linolein hydroperoxides (Cayman Chemical). The percentage of control was calculated using the following formula; (A − B)/(C − B) × 100, with A = test sample, B = linoleic acid alone, and C = vehicle control. Ascorbic acid was used as a reference agent.
# [2] = Plasma pharmacokinetics of KBGY constituents in rats after single oral administration of KBGY; type: in vivo, rat
# Experimental: KBGY prepared in water was administered orally to 16 h fasted rats at a dose of 2 g/10 mL/kg (n = 3). […] Plasma was obtained by centrifugation at 1700× g for 15 min at 4 °C and stored at −80 °C until analysis.
# For quantification of the dicarboxylic acid, 50 µL of standard solution, 100 µL of acetic acid (2%, v/v), and 650 µL of ethyl acetate were added to 200 µL of plasma samples, followed by mixing and centrifugation (7000× g, 5 min). The supernatants were collected and dried with a centrifugal evaporator and concentration system (CC-105; TOMY SEIKO Co., Tokyo, Japan). The residue was dissolved with 100 µL acetonitrile and 50 µL BF3/butanol solution; the dissolved solution was incubated for 1 h at 60 °C. The reaction was terminated by the addition of 50 µL of water and hexane, 150 µL of a saturated solution of sodium chloride, and 400 µL of hexane. The solution was vortexed for 2 min, and the supernatant was obtained by centrifugation (7000× g, 5 min). Liquid–liquid extraction was repeated twice. The corrected supernatant was dried with the centrifugal evaporator and concentration system. The dried residue was dissolved in 100 µL of acetonitrile containing 1 µg/mL of o-terphenyl (Tokyo Chemical Ind. Co.) as an internal standard (IS). Five microliters of the solution was then injected into the GC/MS system.
# For quantification of volatile organic compounds (cinnamaldehyde, methyl cinnamate, 2-methoxycinnamaldehyde, mandelonitrile, salicylaldehyde, eugenol, cinnamyl alcohol, and 3-phenylpropyl acetate), 25 µL of standard solution, 25 µL of 2 µg/mL of 1,4-dibromobenzene (Tokyo Chemical Ind. Co.) as IS, and 500 µL of acetonitrile were added to 200 µL of plasma samples, followed by mixing and centrifugation (7000× g, 5 min). Five microliters of the supernatant was then injected into the GC/MS system.
# For quantification of other compounds, 25 µL of standard solution, 25 µL of 2 ng/mL of atropine sulfate monohydrate (Wako Pure Chemical Ind.) or niflumic acid (Sigma-Aldrich) as IS, and 750 µL of methanol were added to 200 µL of plasma samples, followed by mixing and centrifugation (7000× g, 5 min). The supernatant was obtained and dried with the centrifugal evaporator and concentration system after 150 µL of propylene glycol (1%, v/v) was added to the supernatant. The dried residue was then dissolved in 60 μL of the HPLC mobile phase for each analytical method, and a 10 or 20 μL portion was injected into the LC/MS/MS system.
# Plasma pharmacokinetic data were analyzed by noncompartmental modeling using Phoenix WinNonlin (version 6.3, Certara L.P., St. Louis, MO, USA) to determine various pharmacokinetic constants, including the maximum concentration (Cmax), time to maximum concentration (tmax), apparent elimination half-life (t1/2), and area under the plasma concentration-time curve from zero to last observation time (AUC0–last). The t1/2 was divided by loge^2/ke, where ke was the terminal elimination (at least three data points on the descending linear limb) rate constant.
# [3] = ROS scavenging assay (hydrogen peroxide-dependent oxidation); type: biochemical; settings: for Antioxidant Activity (% of Control) ROS Scavenge: C.I. = complete inhibition
# Experimental: Hydrogen peroxide-dependent oxidation tests were performed using Oxiselect™ In Vitro ROS/RNS Assay kits (Cellbiolab Inc., San Diego, CA, USA) according to the manufacturer’s protocol. Briefly, a test sample was mixed with hydrogen peroxide (final concentration: 2.5 μmol/L) and incubated for 5 min. A fluorescent reaction was started by the addition of a fluorescent probe (dichrolodihydrofluorescin-DiOxyQ) at room temperature. After incubation for 15 min, relative fluorescent units (RFUs) were measured at […] using a fluorescent plate reader (Infinite M200; Tecan Trading AG, Männedorf, Switzerland). The percentage of control was calculated using the following formula; (A − B)/(C − B) × 100, with A = test sample, B = fluorescent probe alone, and C = vehicle control. (+)-Ascorbic acid was used as a reference agent.
# [4] = 10 μmol/L, more than 100% = no activity
# [5] = rat plasma, single oral KBGY 2 g/kg
Structure (SMILES),"Antioxidant Activity (% of Control) LPO Generation [1, 4]","AUC(0-t) ([2]; rat, in vivo, po, 2 g/kg)","Cmax ([2]; rat, in vivo, po, 2 g/kg)","Tmax ([2]; rat, in vivo, po, 2 g/kg)","Antioxidant Activity (% of Control) ROS Scavenge [3, 4]",Antioxidant Activity (% of Control) LPO Generation ([1]; 1 μmol/L),"Antioxidant Activity (% of Control) LPO Generation ([1]; 10 μmol/L, more than 100% = no activity, listed as lyoniresinol)","AUC0–last [2, 5]","Tmax [2, 5]","t1/2 [2, 5]",Antioxidant Activity (% of Control) ROS Scavenge ([3]; 1 μmol/L),anti-ROS activity ([3]; 10 μmol/L),"Antioxidant Activity (% of Control) LPO Generation ([1]; 10 μmol/L, more than 100% = no activity, listed as gallic acid)","Inhibition of LPO generation ([1]; 3 and 10 μmol/L, Figure 4)","Tmax ([2]; in vivo, rat plasma, single oral KBGY 2 g/kg, read-out: tmax)","half-life ([2]; rat, in vivo, po, 2 g/kg)",ROS scavenging activity (% control) ([3]; 0.313 μmol/L),"IC50 ([3]; concentration-dependency, Figure 4)"
O=C(O)CCCCC(=O)O [Adipic acid],103.6 ± 2.9 % of Control,17.1 ng·h/mL,14.4 ng/mL and 99 nM,6 h,97.0 ± 0.9 % of Control,,,,,,,,,,,,,
COc1cc([C@@H]2c3c(cc(OC)c(O)c3OC)C[C@H](CO)[C@H]2CO)cc(OC)c1O [Lyoniresinol],57.4 ± 1.6 % of Control,,,,C.I.,96.8 ± 2.9 % of Control,less than 80 % of Control,0.3 ng·h/mL,1 h,11.4 h,89.3 ± 2.0 % of Control,strong anti-ROS activity,,,,,,
O=C(O)c1cc(O)c(O)c(O)c1 [Gallic acid],74.0 ± 2.5 % of Control,172 ng·h/mL,84.9 ng/mL and 499 nM,,14.5 ± 0.7 % of Control,,,,,,,strong anti-ROS activity,less than 80 % of Control,significantly inhibited LPO generation,0.5 h,0.772 h,71.1 % control,954 nM
OC[C@H](Cc1cccc(O)c1)[C@H](CO)Cc1cccc(O)c1 [Enterodiol],84.9 ± 3.1 % of Control,2.91 ng·h/mL,1.03 ng/mL and 3 nM,0.5 h,C.I.,95.2 ± 4.4 % of Control,,,,,67.6 ± 2.4 % of Control,strong anti-ROS activity,,,,27.3 h,,
O=C1OC[C@H](Cc2cccc(O)c2)[C@H]1Cc1cccc(O)c1 [Enterolactone],86.1 ± 0.9 % of Control,1.33 ng·h/mL,1.07 ng/mL and 4 nM,4 h,C.I.,102.1± 2.7 % of Control,,,,,81.6 ± 2.9 % of Control,strong anti-ROS activity,,,,,,
